Data from patent US10125126B2, “N-cycloalkyl-N-[(heterocyclylphenyl)methylene]-(thio)carboxamide derivatives” (BAYER CROPSCIENCE AG, priority 2012, dated 2018).

Assays:
Leptosphaeria nodorum = test: In vivo preventive test on Leptosphaeria nodorum (wheat); settings: 500 ppm of active ingredient, evaluated 8 days after inoculation
Method: In Vivo Preventive Test on Leptosphaeria nodorum Test (Wheat) [table] To produce a suitable preparation of active compound, 1 part by weight of active compound or active compound combination is mixed with the stated amounts of solvent and emulsifier, and the concentrate is diluted with water to the desired concentration. To test for preventive activity, young plants are sprayed with the preparation of active compound or active compound combination at the stated rate of application. After the spray coating has been dried, the plants are sprayed with a spore suspension of Leptosphaeria nodorum. The plants remain for 48 hours in an incubation cabinet at approximately 20° C. and a relative atmospheric humidity of approximately 100%.

Pyrenophora teres = test: In vivo preventive test on Pyrenophora teres (barley); settings: 500 ppm of active ingredient; barley plants; 14 days after contamination
Outline: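 Barley ("Plaisant") grown at 22° C was sprayed at the 1-leaf stage (10 cm) with active ingredient in acetone/tween/DMSO/water, with solvent-only controls. After 24 h, leaves were inoculated with Pyrenophora teres spores (12 000 spores per mL) from 12-day cultures. % efficacy versus controls graded 14 days post-contamination.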

Puccinia recondita = test: In vivo preventive test on Puccinia recondita (brown rust on wheat); settings: 500 ppm of active ingredient; wheat plants; 12 days after contamination
Outline: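 Wheat plants ("Scipion") at 1-leaf stage, grown at 22° C, were sprayed with compound, then inoculated 24 h later with Puccinia recondita spores (100 000 spores per mL). Efficacy (%) graded 12 days after inoculation relative to solvent-treated controls.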

CC(C)c1ccc(-c2csc3ccccc23)cc1CN(C(=O)c1c(C(F)F)nn(C)c1F)C1CC1 [I.157, N-[5-(1-benzothiophen-3-yl)-2-isopropylbenzyl]-N-cyclopropyl-3-(difluoromethyl)-5-fluoro-1-methyl-1H-pyrazole-4-carboxamide]
Efficacy (Leptosphaeria nodorum): 100%
Efficacy (Pyrenophora teres): 93%
Efficacy (Puccinia recondita): 98%
